Experimental data from PubChem BioAssay (NCI).
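Where inhibition never reached the appropriate level, the endpoint shown equals the highest concentration tested. Otherwise, values were interpolated linearly from a five-concentration, 48-hour dose response in 96-well plates. Definition used: TGI = concentration required for complete inhibition of growth.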

What was measured:
Test in all cases: inhibition of tumour cell growth, NCI panel, 48 h
SF-268 CNS = system: SF-268 CNS
SNB-75 CNS = system: SNB-75 CNS
MOLT-4 leukemia = system: MOLT-4 leukemia
MCF7 breast = system: MCF7 breast
HCT-15 colon = system: HCT-15 colon
U251 CNS = system: U251 CNS
HCT-116 colon = system: HCT-116 colon
NCI-H23 lung = system: NCI-H23 lung
HOP-92 NSCLC = system: HOP-92 NSCLC
SR leukemia = system: SR leukemia
MDA-MB-231 breast = system: MDA-MB-231 breast
OVCAR-8 ovarian = system: OVCAR-8 ovarian
NCI/ADR-RES ovarian = system: NCI/ADR-RES ovarian
SK-MEL-2 melanoma = system: SK-MEL-2 melanoma
LOX IMVI melanoma = system: LOX IMVI melanoma
MDA-N = system: MDA-N
HT29 colon = system: HT29 colon
CCRF-CEM leukemia = system: CCRF-CEM leukemia
MDA-MB-435 = system: MDA-MB-435
SF-295 CNS = system: SF-295 CNS
TK-10 renal = system: TK-10 renal
KM12 colon = system: KM12 colon
UACC-62 melanoma = system: UACC-62 melanoma
SK-OV-3 ovarian = system: SK-OV-3 ovarian
OVCAR-3 ovarian = system: OVCAR-3 ovarian
OVCAR-4 ovarian = system: OVCAR-4 ovarian
MALME-3M melanoma = system: MALME-3M melanoma
HOP-62 NSCLC = system: HOP-62 NSCLC
SK-MEL-5 melanoma = system: SK-MEL-5 melanoma
RPMI-8226 leukemia = system: RPMI-8226 leukemia
A549 NSCLC = system: A549 NSCLC
SN12C renal = system: SN12C renal
A498 renal = system: A498 renal
M14 melanoma = system: M14 melanoma
COLO 205 colon = system: COLO 205 colon
PC-3 prostate = system: PC-3 prostate
UACC-257 melanoma = system: UACC-257 melanoma
EKVX NSCLC = system: EKVX NSCLC
NCI-H226 lung = system: NCI-H226 lung
SK-MEL-28 melanoma = system: SK-MEL-28 melanoma
SNB-19 CNS = system: SNB-19 CNS
HS 578T breast = system: HS 578T breast
IGROV1 ovarian = system: IGROV1 ovarian
K-562 leukemia = system: K-562 leukemia
UO-31 renal = system: UO-31 renal
DU-145 prostate = system: DU-145 prostate
ACHN renal = system: ACHN renal
OVCAR-5 ovarian = system: OVCAR-5 ovarian
SW-620 colon = system: SW-620 colon
786-0 renal = system: 786-0 renal
SF-539 CNS = system: SF-539 CNS
NCI-H522 lung = system: NCI-H522 lung
NCI-H460 lung = system: NCI-H460 lung
HCC-2998 colon = system: HCC-2998 colon
RXF 393 renal = system: RXF 393 renal
T-47D breast = system: T-47D breast
HL-60(TB) leukemia = system: HL-60(TB) leukemia
CAKI-1 renal = system: CAKI-1 renal

C=CCC(NCc1ccccc1)[C@H](OCc1ccccc1)[C@@H]1COC(C)(C)O1 (some centres undefined)
TGI (SF-268 CNS): > 100 µM
TGI (SNB-75 CNS): > 100 µM
TGI (MOLT-4 leukemia): 83.1 µM
TGI (MCF7 breast): > 100 µM
TGI (HCT-15 colon): 64.9 µM
TGI (U251 CNS): > 100 µM
TGI (HCT-116 colon): > 100 µM
TGI (NCI-H23 lung): > 100 µM
TGI (HOP-92 NSCLC): 49 µM
TGI (SR leukemia): 55 µM
TGI (MDA-MB-231 breast): > 100 µM
TGI (OVCAR-8 ovarian): > 100 µM
TGI (NCI/ADR-RES ovarian): > 100 µM
TGI (SK-MEL-2 melanoma): 46 µM
TGI (LOX IMVI melanoma): 72 µM
TGI (MDA-N): > 100 µM
TGI (HT29 colon): 27.1 µM
TGI (CCRF-CEM leukemia): 69.9 µM
TGI (MDA-MB-435): > 100 µM
TGI (SF-295 CNS): 99.6 µM
TGI (TK-10 renal): 70.8 µM
TGI (KM12 colon): > 100 µM
TGI (UACC-62 melanoma): > 100 µM
TGI (SK-OV-3 ovarian): > 100 µM
TGI (OVCAR-3 ovarian): > 100 µM
TGI (OVCAR-4 ovarian): > 100 µM
TGI (MALME-3M melanoma): 76.7 µM
TGI (HOP-62 NSCLC): > 100 µM
TGI (SK-MEL-5 melanoma): 55.2 µM
TGI (RPMI-8226 leukemia): 44.4 µM
TGI (A549 NSCLC): > 100 µM
TGI (SN12C renal): > 100 µM
TGI (A498 renal): > 100 µM
TGI (M14 melanoma): > 100 µM
TGI (COLO 205 colon): 41.3 µM
TGI (PC-3 prostate): > 100 µM
TGI (UACC-257 melanoma): 58.1 µM
TGI (EKVX NSCLC): > 100 µM
TGI (NCI-H226 lung): 34.1 µM
TGI (SK-MEL-28 melanoma): > 100 µM
TGI (SNB-19 CNS): > 100 µM
TGI (HS 578T breast): > 100 µM
TGI (IGROV1 ovarian): > 100 µM
TGI (K-562 leukemia): 56.4 µM
TGI (UO-31 renal): 83.1 µM
TGI (DU-145 prostate): > 100 µM
TGI (ACHN renal): > 100 µM
TGI (OVCAR-5 ovarian): > 100 µM
TGI (SW-620 colon): > 100 µM
TGI (786-0 renal): > 100 µM

CCOC(=O)C(=CNC(=S)c1ccncc1)C(=O)OCC
TGI (SF-539 CNS): > 100 µM
TGI (SF-268 CNS): > 100 µM
TGI (SNB-75 CNS): > 100 µM
TGI (MOLT-4 leukemia): > 100 µM
TGI (MCF7 breast): > 100 µM
TGI (HCT-15 colon): > 100 µM
TGI (U251 CNS): > 100 µM
TGI (HCT-116 colon): > 100 µM
TGI (NCI-H23 lung): > 100 µM
TGI (HOP-92 NSCLC): > 100 µM
TGI (SR leukemia): > 100 µM
TGI (MDA-MB-231 breast): > 100 µM
TGI (NCI-H522 lung): > 100 µM
TGI (NCI-H460 lung): > 100 µM
TGI (SK-MEL-2 melanoma): > 100 µM
TGI (LOX IMVI melanoma): > 100 µM
TGI (MDA-N): > 100 µM
TGI (CCRF-CEM leukemia): > 100 µM
TGI (MDA-MB-435): > 100 µM
TGI (SF-295 CNS): > 100 µM
TGI (TK-10 renal): > 100 µM
TGI (KM12 colon): > 100 µM
TGI (UACC-62 melanoma): > 100 µM
TGI (SK-OV-3 ovarian): > 100 µM
TGI (OVCAR-3 ovarian): > 100 µM
TGI (OVCAR-4 ovarian): > 100 µM
TGI (MALME-3M melanoma): > 100 µM
TGI (HOP-62 NSCLC): > 100 µM
TGI (SK-MEL-5 melanoma): > 100 µM
TGI (RPMI-8226 leukemia): > 100 µM
TGI (HCC-2998 colon): > 100 µM
TGI (A549 NSCLC): > 100 µM
TGI (SN12C renal): > 100 µM
TGI (RXF 393 renal): > 100 µM
TGI (A498 renal): > 100 µM
TGI (M14 melanoma): > 100 µM
TGI (COLO 205 colon): > 100 µM
TGI (PC-3 prostate): > 100 µM
TGI (T-47D breast): > 100 µM
TGI (UACC-257 melanoma): > 100 µM
TGI (EKVX NSCLC): > 100 µM
TGI (HL-60(TB) leukemia): > 100 µM
TGI (SK-MEL-28 melanoma): > 100 µM
TGI (SNB-19 CNS): > 100 µM
TGI (HS 578T breast): > 100 µM
TGI (IGROV1 ovarian): > 100 µM
TGI (K-562 leukemia): > 100 µM
TGI (UO-31 renal): > 100 µM
TGI (DU-145 prostate): > 100 µM
TGI (ACHN renal): > 100 µM
TGI (OVCAR-5 ovarian): > 100 µM
TGI (SW-620 colon): > 100 µM
TGI (786-0 renal): > 100 µM
TGI (CAKI-1 renal): > 100 µM
